Reference: patent publication US6699884B2, “Fluoro-substituted benzenesulfonyl compounds for the treatment of inflammation” (Pharmacia Corporation, priority 2001, dated 2004)

What was measured:
[1] = biological target: T1, Human COX-1 (Homo sapiens, UniProt P23219); assay: Fast assay for COX-1 activity (PGE2 formed, ELISA); type: biochemical; conditions: recombinant enzyme in CHAPS-solubilized insect cell membranes; 10 min pre-incubation at 25° C.; 10 μM arachidonic acid
T1 construct: A 2.0 kb fragment containing the coding region of either human or murine COX-1 or human or murine COX-2; made in house; host or cells: SF9 insect cells (baculovirus, pVL1393)
Protocol: Recombinant baculoviruses were isolated by transfecting 4 μg of baculovirus transfer vector DNA into SF9 insect cells (2×10^8) along with 200 ng of linearized baculovirus plasmid DNA by the calcium phosphate method. See M. D. Summers and G. E. Smith, A Manual of Methods for Baculovirus Vectors and Insect Cell Culture Procedures, Texas Agric. Exp. Station Bull. […] Recombinant viruses were purified by three rounds of plaque purification and high titer (10^7-10^8 pfu/mL) stocks of virus were prepared. For large scale production, SF9 insect cells were infected in 10 liter fermentors (0.5×10^6/mL) with the recombinant baculovirus stock such that the multiplicity of infection was 0.1. After 72 hours the cells were centrifuged and the cell pellet homogenized in Tris/Sucrose (50 mM: 25%, pH 8.0) containing 1% 3-[(3-cholamidopropyl)dimethylammonio]-1-propanesulfonate (CHAPS). The homogenate was centrifuged at 10,000×G for 30 minutes, and the resultant supernatant was stored at −80° C. before being assayed for COX activity.
COX activity was assayed as PGE2 formed/μg protein/time using an ELISA to detect the prostaglandin released. CHAPS-solubilized insect cell membranes containing the appropriate COX enzyme were incubated in a potassium phosphate buffer (50 mM, pH 8.0) containing epinephrine, phenol, and heme with the addition of arachidonic acid (10 μM). Compounds were pre-incubated with the enzyme for 10-20 minutes prior to the addition of arachidonic acid. Any reaction between the arachidonic acid and the enzyme was stopped after ten minutes at 37° C. room temperature by transferring 40 μl of reaction mix into 160 μl ELISA buffer and 25 μM indomethacin. The PGE2 formed was measured by standard ELISA technology (Cayman Chemical).
COX activity was assayed as PGE2 formed/μg protein/time using an ELISA to detect the prostaglandin released. […] Compounds were pre-incubated with the enzyme for 10 minutes at 25° C. prior to the addition of arachidonic acid. Any reaction between the arachidonic acid and the enzyme was stopped after two minutes at 37° C./room temperature by transferring 40 μl of reaction mix into 160 μl ELISA buffer and 25 μM indomethacin. The PGE2 formed was measured by standard ELISA technology (Cayman Chemical).

[2] = biological target: T2, Human COX-2 (Homo sapiens, UniProt P35354); assay: Fast assay for COX-2 activity (PGE2 formed, ELISA); type: biochemical; conditions: recombinant enzyme in CHAPS-solubilized insect cell membranes; 10 min pre-incubation at 25° C.; 10 μM arachidonic acid
T2 construct: A 2.0 kb fragment containing the coding region of either human or murine COX-1 or human or murine COX-2; made in house; host or cells: SF9 insect cells (baculovirus, pVL1393)
T2 sequence (P35354 18-604): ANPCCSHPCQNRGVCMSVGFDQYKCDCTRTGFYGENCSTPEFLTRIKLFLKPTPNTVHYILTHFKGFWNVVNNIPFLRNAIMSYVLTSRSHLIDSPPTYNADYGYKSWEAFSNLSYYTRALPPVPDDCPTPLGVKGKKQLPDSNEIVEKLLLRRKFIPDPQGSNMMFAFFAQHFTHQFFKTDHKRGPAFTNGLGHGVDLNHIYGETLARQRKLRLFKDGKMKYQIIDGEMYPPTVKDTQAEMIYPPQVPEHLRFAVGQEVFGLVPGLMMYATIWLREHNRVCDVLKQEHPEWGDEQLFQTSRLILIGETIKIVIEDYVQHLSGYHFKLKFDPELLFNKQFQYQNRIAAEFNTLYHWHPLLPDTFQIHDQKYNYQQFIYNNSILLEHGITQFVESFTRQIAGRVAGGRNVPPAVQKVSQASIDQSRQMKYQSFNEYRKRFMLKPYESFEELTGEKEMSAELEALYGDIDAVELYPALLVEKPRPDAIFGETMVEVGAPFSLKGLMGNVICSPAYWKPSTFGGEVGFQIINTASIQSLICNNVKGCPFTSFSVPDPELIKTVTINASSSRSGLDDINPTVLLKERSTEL

Row | SMILES | IC50 [1] [nM] | IC50 [2] [nM]
1 | CS(=O)(=O)c1c(F)cc(-c2cc(C(F)(F)F)nn2-c2ccc(F)cc2)cc1F [Example 1, 5-[3,5-difluoro-4-(methylsulfonyl)phenyl]-1-(4-fluorophenyl)-3-(trifluoromethyl)-1H-pyrazole] | > 100000 | 3440
2 | Cc1ccc(-n2nc(C(F)F)cc2-c2cc(F)c(S(C)(=O)=O)c(F)c2)cc1Cl [Example 2, 1-(3-chloro-4-methylphenyl)-3-(difluoromethyl)-5-[3,5-difluoro-4-(methylsulfonyl)phenyl]-1H-pyrazole] | > 100000 | 550
3 | CS(=O)(=O)c1c(F)cc(-c2cc(C(F)(F)F)nn2-c2cccc(C(F)(F)F)c2)cc1F [Example 3, 5-[3,5-difluoro-4-(methylsulfonyl)phenyl]-3-(trifluoromethyl)-1-[3-(trifluoromethyl)phenyl]-1H-pyrazole] | > 100000 | 300
4 | CS(=O)(=O)c1c(F)cc(-c2cc(C(F)(F)F)nn2-c2ccc(OC(F)(F)F)cc2)cc1F [Example 4, 5-[3,5-difluoro-4-(methylsulfonyl)phenyl]-1-[4-(trifluoromethoxy)phenyl]-3-(trifluoromethyl)-1H-pyrazole] | > 100000 | 100
5 | CS(=O)(=O)c1c(F)cc(-c2cc(C(F)F)nn2C2CCCCC2)cc1F [Example 5, 1-cyclohexyl-3-(difluoromethyl)-5-[3,5-difluoro-4-(methylsulfonyl)phenyl]-1H-pyrazole] | > 100000 | –
6 | Cc1ccc(-n2nc(C(F)(F)F)cc2-c2cc(F)c(S(C)(=O)=O)c(F)c2)cc1Cl [Example 6, 1-(3-chloro-4-methylphenyl)-5-[3,5-difluoro-4-(methylsulfonyl)phenyl]-3-(trifluoromethyl)-1H-pyrazole] | > 100000 | 90
7 | CS(=O)(=O)c1cc(F)c(-c2cc(C(F)(F)F)nn2-c2ccc(Cl)cc2)cc1F [Example 7, 1-(4-chlorophenyl)-5-[2,5-difluoro-4-(methylsulfonyl)-phenyl]-3-(trifluoromethyl)-1H-pyrazole] | 56700 | 90
8 | COc1ccc(-n2nc(C(F)(F)F)cc2-c2cc(F)c(S(C)(=O)=O)cc2F)cc1 [Example 8, 5-[2,5-difluoro-4-(methylsulfonyl)phenyl]-1-(4-methoxyphenyl)-3-(trifluoromethyl)-1H-pyrazole] | 14800 | 250
9 | Cc1onc(-c2ccccc2)c1-c1cc(F)c(S(C)(=O)=O)c(F)c1 [Example 14, 4-[3,5-difluoro-4-(methylsulfonyl)phenyl]-5-methyl-3-phenylisoxazole] | > 100000 | –
10 | Cc1onc(-c2ccccc2)c1-c1cc(F)c(S(N)(=O)=O)c(F)c1 [Example 15, 2,6-difluoro-4-(5-methyl-3-phenylisoxazol-4-yl)benzene-sulfonamide] | > 100000 | 120
